Data on 3 substances can be found in article PMC11928319 (Nature Plants, 2025).

Where no end group is shown, it is not given here.

The test system of this data set is filter-sterile supernatant of D. japonica MF79. The data set can be described thus: Peptide quantification by mass spectrometry after incubation in cell-free supernatant of D. japonica MF79. The format is in vitro ADME, Dyella japonica MF79. The following applies: for peptide degradation in culture supernatant of wild-type D. japonica MF79 / peptide depletion in supernatant of the D. japonica MF79 gspD mutant: 1 µM peptide, 1 h, filter-sterile supernatant, XVM2 (OD600 = 0.6), LC-MS; for Log10(total_area_MS1) / percent_rel_axenic: incubation 1h; for Log10(total_area_MS1): MS1 precursor area; for percent_rel_axenic: peptide relative to axenic. The method, then: Elicitors were also supplemented into the medium prior to solidification at a final concentration of 1 µM. The flg22 ([…]) and AtPep1 ([…]) peptides were synthesized by EZbiolab. elf18^R179 (Ac-[…]) and elf18 (Ac-[…]) were synthesized by GenScript and EZbiolab, respectively. […] Bacteria were pelleted by centrifugation (11,600 g, 2 min), and the supernatant was sterile-filtered using filter units with MF-Millipore membrane (0.22 µm; Millex). The supernatant was incubated in boiling water for 30 min for heat treatment. Then, 25 ml of 1× MS with 20 g l^−1 Bacto Agar was mixed with 25 ml of supernatant prior to medium solidification and poured into square petri dishes. Sterilized seeds were placed on solidified agar in square petri dishes and vertically incubated for 14 days.
Bacterial supernatants were prepared as described in ‘Agar-based cultivation of axenic plants and co-cultivation with bacteria, bacterial supernatants and elicitors’. Here, additionally, the peptides dRGF1 (DYSNPGHHP-Hyp-RHN) and PSY1 (D-Y(SO3H)-[…]-Hyp-Hyp-S) synthesized by Scilight Peptide were incubated for 1 h with 1 µM of peptides in a plant cultivation light chamber (day-light condition; see ‘Plant cultivation conditions’), and the samples were frozen at −20 °C until further processing. For the investigation of AtPep1 degradation, the AtPep1 peptide was first modified by acetylation (six to seven times). To this end, 100-µl aliquots of peptides were treated with 10 µl of NHS acetate solution (1 M NHS acetate in 50% ACN/PBS) and incubated for 30 min with shaking. The reaction was quenched by the addition of 100 µl of 100 mM Tris-HCl (pH 8.5) and incubated for 10 min. For comparison of the non-acetylated peptides with the above-described modified AtPep1 peptides, aliquots of the non-acetylated peptides were processed as described above, but without the modifying NHS reaction. To this end, 100-µl aliquots of the sample were mixed with 100 µl of PBS buffer (137 mM NaCl, 2.7 mM KCl, 10 mM Na2HPO4, 1.8 mM KH2PO4; pH 7.4). The samples were then further diluted with 100 µl of 100 mM Tris-HCl (pH 8.5) and incubated for 10 min. All samples were acidified with 5 µl of TFA and desalted using StageTips with C18 Empore disk membranes (3M)[109]. The samples were dried in a vacuum evaporator and dissolved in 10 µl of 2% ACN (0.1% TFA for analysis).
The samples were analysed using an EASY-nLC 1200 (Thermo Fisher) coupled to a QExactive Plus mass spectrometer (Thermo Fisher). Peptides were separated on 16-cm frit-less silica emitters (New Objective, 75 µm inner diameter), packed in-house with reversed-phase ReproSil-Pur C18 AQ 1.9 µm resin (Dr. Maisch). Peptides were loaded on the column and eluted for 50 min using a segmented linear gradient of 5% to 95% solvent B (0 min, 5% B; 0–5 min, 15% B; 5–35 min, 50% B; 35–45 min, 95% B; 45–50 min, 95% B) (solvent A: 0% ACN, 0.1% FA; solvent B: 80% ACN, 0.1% FA) at a flow rate of 300 nl min^−1. Mass spectra were acquired in data-dependent acquisition mode with a TOP10 method. Mass spectrometry spectra were acquired in the Orbitrap analyser with a mass range of 300–1,500 m/z at a resolution of 70,000 full width at half maximum (FWHM) and a target value of 3 × 10^6 ions. Precursors were selected with an isolation window of 1.3 m/z. Higher-energy collision dissociation (HCD) fragmentation was performed at a normalized collision energy of 25. Tandem mass spectrometry (MS/MS) spectra were acquired with a target value of 5 × 10^5 ions at a resolution of 17,500 FWHM, a maximum injection time of 85 ms and a fixed first mass of 100 m/z. Peptides with a charge of 1 or greater than 6 or with an unassigned charge state were excluded from fragmentation for MS/MS; dynamic exclusion for 20 s prevented repeated selection of precursors. The raw data were analysed on the MS1 level using Skyline (https://skyline.ms)[110], and the results were filtered for the respective intact peptides, or the acetylated version in the case of AtPep1. […]

[1] abbreviates: MF79 gspD mutant supernatant, XVM2 medium, replicate 1.
[2] abbreviates: MF79 gspD mutant supernatant, XVM2 medium, replicate 2.
Setting [3] is: MF79 gspD mutant supernatant, XVM2 medium, replicate 3.
The mark [4] stands for this setting: MF79 supernatant, XVM2 medium, replicate 1.
The mark [5] stands for this setting: MF79 supernatant, XVM2 medium, replicate 2.
The mark [6] stands for this setting: MF79 supernatant, XVM2 medium, replicate 3.
[7] abbreviates: axenic XVM2 medium control, replicate 2.
[8] abbreviates: axenic XVM2 medium control, replicate 3.
The mark [9] stands for this setting: axenic XVM2 medium control, replicate 1.

As for ATKVKAKQRGKEKVSSGRPGQHN [AtPep1], the “peptide degradation in culture supernatant of wild-type D. japonica MF79” value (shortened to “peptide degradation”) is given as “similarly effective in degrading” and the “peptide depletion in supernatant of the D. japonica MF79 gspD mutant” value (shortened to “peptide depletion in supernatant”) is reported as “depleted”. Moreover, under setting [1], the “Log10(total_area_MS1)” value is 0 and the percent_rel_axenic came to 0%. Also, under setting [2], the “Log10(total_area_MS1)” value was 0 and the percent_rel_axenic was 0%. For the same substance, under setting [3], the “Log10(total_area_MS1)” value was determined as 0 and the percent_rel_axenic stood at 0%. Further, under setting [4], the “Log10(total_area_MS1)” value was found to be 7.596 and the percent_rel_axenic came out at 0.3481%. Moreover, under setting [5], the “Log10(total_area_MS1)” value is given as 7.38 and the percent_rel_axenic is on record as 0.2117%. Moreover, under setting [6], the “Log10(total_area_MS1)” value came out at 6.998 and the percent_rel_axenic stood at 0.0878%. Under setting [7], the “Log10(total_area_MS1)” value worked out at 10.0991 and the percent_rel_axenic is on record as 110.888%. In addition, under setting [8], the “Log10(total_area_MS1)” value is reported as 9.961 and the percent_rel_axenic came out at 80.7256%.

Consider Ac-SKEKFERTKPHVNVGTIG [elf18], for which the “peptide degradation” value was “similarly effective in degrading” and the “peptide depletion in supernatant” value was “depleted”. For the same substance, under setting [1], the “Log10(total_area_MS1)” value was found to be 7.363 and the percent_rel_axenic worked out at 0.1126%. Under setting [2], the “Log10(total_area_MS1)” value was 7.327 and the percent_rel_axenic is 0.1036%. Also, under setting [3], the “Log10(total_area_MS1)” value is 7.195 and the percent_rel_axenic stood at 0.0764%. Further, under setting [4], the “Log10(total_area_MS1)” value is on record as 8.052 and the percent_rel_axenic is listed as 0.5496%. In addition, under setting [5], the “Log10(total_area_MS1)” value worked out at 7.627 and the percent_rel_axenic is listed as 0.2067%. Moreover, under setting [6], the “Log10(total_area_MS1)” value is reported as 7.56 and the percent_rel_axenic was determined as 0.1772%. In addition, under setting [9], the “Log10(total_area_MS1)” value was 10.4148 and the percent_rel_axenic was found to be 126.772%. Moreover, under setting [7], the “Log10(total_area_MS1)” value worked out at 10.2259 and the percent_rel_axenic came out at 82.063%. For the same substance, under setting [8], the “Log10(total_area_MS1)” value turned out to be 10.2716 and the percent_rel_axenic was 91.1647%.

As to QRLSTGSRINSAKDDAAGLQIA [flg22], the “peptide degradation” value is “similarly effective in degrading” and the “peptide depletion in supernatant” value was “depleted”. Further, under setting [1], the “Log10(total_area_MS1)” value is recorded as 0 and the percent_rel_axenic was 0%. Under setting [2], the “Log10(total_area_MS1)” value came out at 0 and the percent_rel_axenic amounted to 0%. For the same substance, under setting [3], the “Log10(total_area_MS1)” value was determined as 0 and the percent_rel_axenic is 0%. Also, under setting [4], the “Log10(total_area_MS1)” value is 0 and the percent_rel_axenic stood at 0%. Moreover, under setting [5], the “Log10(total_area_MS1)” value was 0 and the percent_rel_axenic came to 0%. Also, under setting [6], the “Log10(total_area_MS1)” value was determined as 0 and the percent_rel_axenic was 0%. Besides, under setting [9], the “Log10(total_area_MS1)” value is on record as 7.6416 and the percent_rel_axenic was 94.9639%. Besides, under setting [7], the “Log10(total_area_MS1)” value was 7.393 and the percent_rel_axenic came out at 53.5357%. Besides, under setting [8], the “Log10(total_area_MS1)” value is on record as 7.844 and the percent_rel_axenic is reported as 151.5%.
